Where two headings read alike, the source gives them in different places.
Tests used:
[1] = spray table water, initial pH 6.3, 60° F
Procedure: Water samples were taken from the spray table of a sugar beet factory. […] The hydrogen peroxide concentration was measured periodically over a 60 minute period. The oxidation-reduction potential (ORP) was measured over the same period.

[2] = flume return (clarifier inlet) water, initial pH 6.4, 62° F
Procedure: Water samples were taken from the flume return (clarifier inlet) in a sugar beet factory. […] The hydrogen peroxide concentration was measured periodically over a 60 minute period. The oxidation-reduction potential (ORP) was measured over the same period.

[3] = initial dose 60 ppm, time 5 min
[4] = initial dose 60 ppm, time 30 min
[5] = initial dose 60 ppm, time 45 min
[6] = initial dose 60 ppm, time 60 min
[7] = initial dose 120 ppm, time 5 min
[8] = initial dose 120 ppm, time 30 min
[9] = initial dose 120 ppm, time 45 min
[10] = initial dose 120 ppm, time 60 min
[11] = initial dose 180 ppm, time 5 min
[12] = initial dose 180 ppm, time 30 min
[13] = initial dose 180 ppm, time 45 min
[14] = initial dose 180 ppm, time 60 min

Question: For OO [H2O2, hydrogen peroxide], which H2O2 concentration [1, 3] is on record?
Answer: Its H2O2 concentration is 50 ppm.

Question: And the H2O2 concentration [1, 4]?
Answer: The H2O2 concentration was 5 ppm.

Question: And the H2O2 concentration [1, 5]?
Answer: The H2O2 concentration was 0.5 ppm.

Question: And the H2O2 concentration [1, 6]?
Answer: The H2O2 concentration was less than 0.5 ppm.

Question: What about the H2O2 concentration [1, 7] of the same compound?
Answer: Its H2O2 concentration is greater than 100 ppm.

Question: And the H2O2 concentration [1, 8]?
Answer: The H2O2 concentration was 15 ppm.

Question: And the H2O2 concentration [1, 9]?
Answer: Its H2O2 concentration is 2 ppm.

Question: What about the H2O2 concentration [1, 10] of the same compound?
Answer: The H2O2 concentration was 1 ppm.

Question: What about the H2O2 concentration [1, 11] of the same compound?
Answer: The H2O2 concentration was greater than 100 ppm.

Question: And the H2O2 concentration [1, 12]?
Answer: The H2O2 concentration was 25 ppm.

Question: What about the H2O2 concentration [1, 13] of the same compound?
Answer: Its H2O2 concentration is 5 ppm.

Question: What about the H2O2 concentration [1, 14] of the same compound?
Answer: The H2O2 concentration was 3 ppm.

Question: What about the H2O2 concentration [2, 3] of the same compound?
Answer: The H2O2 concentration was 50 ppm.

Question: And the H2O2 concentration [2, 4]?
Answer: Its H2O2 concentration is 3 ppm.

Question: What about the H2O2 concentration [2, 5] of the same compound?
Answer: The H2O2 concentration was 0.5 ppm.

Question: And the H2O2 concentration [2, 6]?
Answer: Its H2O2 concentration is 0 ppm.

Question: And the H2O2 concentration [2, 7]?
Answer: Its H2O2 concentration is greater than 100 ppm.

Question: What about the H2O2 concentration [2, 8] of the same compound?
Answer: The H2O2 concentration was 10 ppm.

Question: What about the H2O2 concentration [2, 9] of the same compound?
Answer: Its H2O2 concentration is 3 ppm.

Question: What about the H2O2 concentration [2, 10] of the same compound?
Answer: Its H2O2 concentration is less than 0.5 ppm.

Question: What about the H2O2 concentration [2, 11] of the same compound?
Answer: The H2O2 concentration was greater than 100 ppm.

Question: And the H2O2 concentration [2, 12]?
Answer: The H2O2 concentration was 25 ppm.

Question: What about the H2O2 concentration [2, 13] of the same compound?
Answer: The H2O2 concentration was 5 ppm.

Question: And the H2O2 concentration [2, 14]?
Answer: Its H2O2 concentration is 1 ppm.
